Assay results published in ChEMBL document CHEMBL1201862, “PubChem BioAssay data set” (2004).
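Results reflect a 48-hour exposure of cells in 96-well plates to compound at five concentrations. Here, GI50 denotes the concentration required for 50% inhibition of growth.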 The source made the active and inactive calls. Rule as the data show it: active = GI50 up to about 1.1 µM and inactive = higher.

What was measured:
Assay in all cases: DTP human tumour cell line panel, 48 h
[1] = test system: ACHN
[2] = test system: BT-549
[3] = test system: CCRF-CEM
[4] = test system: DU-145
[5] = test system: HL-60
[6] = test system: HT-29
[7] = test system: IGROV-1
[8] = test system: KM12
[9] = test system: LOX IMVI
[10] = test system: M14
[11] = test system: MCF7
[12] = test system: MDA-MB-231
[13] = test system: Malme-3M
[14] = test system: NCI-H226
[15] = test system: NCI-H23
[16] = test system: PC-3
[17] = test system: SF-268
[18] = test system: SF-295
[19] = test system: SK-MEL-28
[20] = test system: SW-620

Measured: GI50

O=C1NNC(=O)c2ccccc2SSc2ccccc2C(=O)NNC(=O)c2ccccc2SSc2ccccc21
inactive: [1] 14 µM | [2] 11.5 µM | [3] 1.26 µM | [4] 21.4 µM | [5] 6.7 µM | [6] 16.7 µM | [7] 9.25 µM | [8] 22.5 µM | [9] 12 µM | [10] 24.4 µM | [11] 6.05 µM | [12] 32.4 µM | [13] 15.6 µM | [14] > 50 µM | [15] 9.33 µM | [16] 19.5 µM | [17] 5.31 µM | [18] 2.45 µM | [19] 45.5 µM | [20] 8.59 µM

CC1=NN(c2ccccc2)C(=O)C1/N=N/c1ccc(S(N)(=O)=O)cc1 (stereo not given)
inactive: [1] > 100 µM | [2] > 100 µM | [3] > 100 µM | [4] > 100 µM | [5] > 100 µM | [6] > 100 µM | [7] > 100 µM | [8] > 100 µM | [9] > 100 µM | [10] > 100 µM | [11] > 100 µM | [12] > 100 µM | [13] > 100 µM | [14] > 100 µM | [15] > 100 µM | [16] > 100 µM | [17] > 100 µM | [18] > 100 µM | [19] > 100 µM | [20] > 100 µM

Cc1cccc2c(=O)c3c(O)cc4c(c3n(C)c12)C=CC(C)(C)O4
inactive: [1] > 100 µM | [2] 23.1 µM | [3] 22.5 µM | [4] > 100 µM | [5] 45.7 µM | [6] 4.63 µM | [7] > 100 µM | [8] 29 µM | [9] 40.3 µM | [10] 28.3 µM | [11] 32.7 µM | [12] > 100 µM | [13] > 100 µM | [14] 29.5 µM | [15] 33 µM | [16] 91.8 µM | [17] > 100 µM | [18] 25.1 µM | [19] > 100 µM | [20] > 100 µM

O=c1[nH]c(-c2ccccc2)nc2c1sc1nc3ccccc3n12
inactive: [1] 61.4 µM | [2] > 61 µM | [3] > 100 µM | [4] > 100 µM | [5] > 100 µM | [6] > 100 µM | [7] > 100 µM | [8] > 92.7 µM | [9] > 100 µM | [10] > 100 µM | [11] > 100 µM | [12] > 100 µM | [13] > 100 µM | [14] > 100 µM | [15] > 100 µM | [16] > 100 µM | [17] 78.2 µM | [18] > 100 µM | [19] > 100 µM | [20] > 100 µM

COc1ccc(NC(=S)N/N=C2\C(=O)Nc3ccccc32)cc1
inactive: [1] 6.5 µM | [2] 4.74 µM | [3] 2.43 µM | [4] 13.6 µM | [5] 2.49 µM | [6] 7.96 µM | [7] 4.83 µM | [8] 13 µM | [9] 2.92 µM | [10] 21.9 µM | [11] 9.48 µM | [12] 30.9 µM | [13] 12.9 µM | [14] 8.97 µM | [15] 14.7 µM | [16] 19.2 µM | [17] 17.5 µM | [18] 3.47 µM | [19] 43.1 µM | [20] 6.28 µM
